According to patent US11020399B2, “Intermediates useful in the synthesis of compounds as modulators of protein kinases” (Rhizen Pharmaceuticals SA, priority 2011, dated 2021):

What was measured:
Assay type in all cases: biochemical
[1] = target: PI3kγ (Homo sapiens, UniProt P48736); experiment: Fluorescent (HTRF) determination of PI3 kinase enzyme activity, PI3Kγ; details: for inhibition at 0.1 µM / % inhibition (PI3kγ) 100 nM: 100 nM (Examples 60-137); for inhibition at 0.3 µM: 300 nM (Examples 1-59)
Description: (§1) Assay 1: Fluorescent Determination of PI3Kinase Kinase Enzyme Activity
(§2) Phosphoinositide 3 kinases (PI3K) belong to a class of lipid kinases that play a critical role in the regulation of several key cellular processes. The PI3K are capable of phosphorylating the 3-hydroxy position of phosphoinositols thereby generating second messengers involved in downstream signalling events. The homogenous time resolved fluorescence (HTRF) assay allows detection of 3,4,5-triphosphate (PIP3) formed as a result of phosphorylation of phosphotidylinositol 4,5-biphosphate (PIP2) by PI3K isoforms such as α, β, γ or δ. PI3K isoform activity for a, p, y or 8 was determined using a PI3K human HTRF™ Assay Kit (Millipore, Billerica, Mass.) with modifications. All incubations were carried out at room temperature. Briefly, 0.5 μl of 40× inhibitor (in 100% DMSO) or 100% DMSO were added to each well of a 384-well black plate (Greiner Bio-One, Monroe, N.C.) containing 14.5 μl IX reaction buffer /PIP2 (10 mM MgCl2, 5 mM DTT, 1.38 μM PIP2) mix with or without enzyme and incubated for 10 min. After the initial incubation, 5 μl/well of 400 μM ATP was added and incubated for an additional 30 minutes. Reaction was terminated by adding 5 μl/well stop solution (Millipore, Billerica, Mass.). Five microliters of detection mix (Millipore, Billerica, Mass.) were then added to each well and was incubated for 6-18 h in the dark. HRTF ratio was measured on a microplate reader (BMG Labtech., Germany) at an excitation wavelength of 337 nm and emission wavelengths of 665 and 620 nm with an integration time of 400 μsec.
(§3) Data were analyzed using Graphpad Prism (Graphpad software; San Diego Calif.) for IC50 determination. Examples 1-59 were tested at 1 uM for Pi3kα & Pi3k β and at 0.3 uM for γ and δ. Examples 60-137 were tested at 1 uM for Pi3kα & Pi3k β and at 0.1 uM for γ and δ. Percent inhibition was calculated based on the values for the blank and enzyme controls. The results are as provided in Table 2 (wherein D=0 to 25%; C=>25 to 50%; B=>50 to 75%; A=>75 to 100%; +++++=≤50 nM; ++++=>50 to ≤100 nM; +++=>100 to ≤300 nM; ++=>300 to ≤500 nM; +=>500 nM)

[2] = target: PI3kδ (Homo sapiens, UniProt O00329); experiment: Fluorescent (HTRF) determination of PI3 kinase enzyme activity, PI3Kδ; details: for inhibition at 0.1 µM / % inhibition (PI3kδ) 100 nM: 100 nM (Examples 60-137); for % inhibition (PI3kδ) 100 nM: 0.1 µM; for inhibition at 0.3 µM: 300 nM (Examples 1-59)
Description: as §1, §2, §3

[3] = target: PI3kα (Homo sapiens, UniProt P42336); experiment: Fluorescent (HTRF) determination of PI3 kinase enzyme activity, PI3Kα
Description: as §1, §2, §3

[4] = target: PI3kβ (Homo sapiens, UniProt P42338); experiment: Fluorescent (HTRF) determination of PI3 kinase enzyme activity, PI3Kβ
Description: as §1, §2, §3

PI3kα, sequence (P42336 whole entry): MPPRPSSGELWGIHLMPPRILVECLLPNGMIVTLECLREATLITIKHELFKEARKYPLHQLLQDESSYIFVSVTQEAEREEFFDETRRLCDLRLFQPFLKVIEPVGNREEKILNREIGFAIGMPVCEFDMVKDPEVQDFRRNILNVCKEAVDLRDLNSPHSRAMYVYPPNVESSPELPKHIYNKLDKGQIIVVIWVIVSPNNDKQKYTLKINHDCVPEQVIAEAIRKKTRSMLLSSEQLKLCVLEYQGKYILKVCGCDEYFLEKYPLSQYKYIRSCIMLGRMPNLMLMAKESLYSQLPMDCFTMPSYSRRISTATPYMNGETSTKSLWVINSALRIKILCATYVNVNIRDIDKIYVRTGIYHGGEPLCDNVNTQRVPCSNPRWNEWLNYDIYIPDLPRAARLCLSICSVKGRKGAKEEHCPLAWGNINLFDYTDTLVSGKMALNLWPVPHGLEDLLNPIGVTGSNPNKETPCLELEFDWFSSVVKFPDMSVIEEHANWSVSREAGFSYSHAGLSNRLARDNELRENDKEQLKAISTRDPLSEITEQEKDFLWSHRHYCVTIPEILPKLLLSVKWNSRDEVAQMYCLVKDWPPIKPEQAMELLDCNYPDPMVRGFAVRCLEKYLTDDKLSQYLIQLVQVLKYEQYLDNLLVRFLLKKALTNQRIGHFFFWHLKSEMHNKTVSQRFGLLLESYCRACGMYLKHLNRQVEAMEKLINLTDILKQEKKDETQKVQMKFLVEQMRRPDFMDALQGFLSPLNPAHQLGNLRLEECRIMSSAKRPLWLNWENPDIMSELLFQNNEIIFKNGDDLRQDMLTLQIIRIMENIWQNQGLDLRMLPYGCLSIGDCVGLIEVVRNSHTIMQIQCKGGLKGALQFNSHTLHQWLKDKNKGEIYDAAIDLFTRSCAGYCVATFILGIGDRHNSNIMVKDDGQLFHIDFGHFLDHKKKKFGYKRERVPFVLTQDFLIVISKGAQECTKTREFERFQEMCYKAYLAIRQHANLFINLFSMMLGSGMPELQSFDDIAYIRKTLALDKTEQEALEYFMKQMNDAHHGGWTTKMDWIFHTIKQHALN
PI3kα, sequence (P27986 whole entry partner): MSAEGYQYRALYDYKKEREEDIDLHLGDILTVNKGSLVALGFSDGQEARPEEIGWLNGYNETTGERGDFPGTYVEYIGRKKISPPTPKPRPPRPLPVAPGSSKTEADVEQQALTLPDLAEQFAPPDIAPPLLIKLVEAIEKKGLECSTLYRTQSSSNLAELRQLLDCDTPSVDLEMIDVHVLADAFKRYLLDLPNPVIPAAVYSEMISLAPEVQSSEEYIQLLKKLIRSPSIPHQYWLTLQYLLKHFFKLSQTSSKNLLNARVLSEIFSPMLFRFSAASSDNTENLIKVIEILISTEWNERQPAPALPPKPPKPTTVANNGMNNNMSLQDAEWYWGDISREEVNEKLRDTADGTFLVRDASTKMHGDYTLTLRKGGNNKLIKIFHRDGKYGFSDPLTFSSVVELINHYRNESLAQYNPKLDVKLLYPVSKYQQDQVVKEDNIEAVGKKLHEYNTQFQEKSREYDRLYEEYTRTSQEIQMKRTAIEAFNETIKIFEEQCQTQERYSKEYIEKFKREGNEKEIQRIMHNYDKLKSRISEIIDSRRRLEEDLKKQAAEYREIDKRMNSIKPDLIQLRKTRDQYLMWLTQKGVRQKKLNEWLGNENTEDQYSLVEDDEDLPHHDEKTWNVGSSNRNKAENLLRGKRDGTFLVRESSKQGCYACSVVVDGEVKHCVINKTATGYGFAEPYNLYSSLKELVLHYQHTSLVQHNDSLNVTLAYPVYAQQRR
PI3kβ, sequence (P42338 whole entry): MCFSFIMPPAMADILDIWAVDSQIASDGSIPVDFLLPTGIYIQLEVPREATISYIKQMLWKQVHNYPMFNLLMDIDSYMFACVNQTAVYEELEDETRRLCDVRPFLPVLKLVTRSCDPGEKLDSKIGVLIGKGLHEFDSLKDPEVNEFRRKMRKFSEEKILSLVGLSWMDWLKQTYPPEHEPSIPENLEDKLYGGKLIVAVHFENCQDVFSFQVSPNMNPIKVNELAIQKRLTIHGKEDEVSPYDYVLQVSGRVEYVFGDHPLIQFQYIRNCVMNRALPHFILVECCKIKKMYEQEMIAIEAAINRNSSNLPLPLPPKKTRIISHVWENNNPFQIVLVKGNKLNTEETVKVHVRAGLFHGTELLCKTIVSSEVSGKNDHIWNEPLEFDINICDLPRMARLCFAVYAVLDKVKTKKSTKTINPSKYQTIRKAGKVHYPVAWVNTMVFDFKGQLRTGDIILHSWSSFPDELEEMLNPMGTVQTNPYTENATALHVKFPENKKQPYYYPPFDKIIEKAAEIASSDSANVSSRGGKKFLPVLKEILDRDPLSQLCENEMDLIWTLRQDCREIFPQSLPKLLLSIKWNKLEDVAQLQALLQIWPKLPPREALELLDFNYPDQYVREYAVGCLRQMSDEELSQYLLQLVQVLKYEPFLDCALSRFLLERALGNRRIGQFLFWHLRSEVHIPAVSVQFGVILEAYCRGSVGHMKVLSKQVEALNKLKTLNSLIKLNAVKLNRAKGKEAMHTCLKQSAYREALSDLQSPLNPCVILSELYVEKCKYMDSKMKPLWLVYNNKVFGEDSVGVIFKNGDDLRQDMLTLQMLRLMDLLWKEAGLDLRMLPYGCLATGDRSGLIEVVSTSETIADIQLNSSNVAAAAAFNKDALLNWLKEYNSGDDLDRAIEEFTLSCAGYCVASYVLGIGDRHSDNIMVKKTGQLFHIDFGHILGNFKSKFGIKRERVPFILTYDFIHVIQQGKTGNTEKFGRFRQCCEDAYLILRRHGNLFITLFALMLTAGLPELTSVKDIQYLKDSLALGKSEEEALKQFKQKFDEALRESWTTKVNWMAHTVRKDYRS
PI3kβ, sequence (P27986 whole entry partner): as the sequence (P27986 whole entry partner) above
PI3kδ, sequence (O00329 whole entry): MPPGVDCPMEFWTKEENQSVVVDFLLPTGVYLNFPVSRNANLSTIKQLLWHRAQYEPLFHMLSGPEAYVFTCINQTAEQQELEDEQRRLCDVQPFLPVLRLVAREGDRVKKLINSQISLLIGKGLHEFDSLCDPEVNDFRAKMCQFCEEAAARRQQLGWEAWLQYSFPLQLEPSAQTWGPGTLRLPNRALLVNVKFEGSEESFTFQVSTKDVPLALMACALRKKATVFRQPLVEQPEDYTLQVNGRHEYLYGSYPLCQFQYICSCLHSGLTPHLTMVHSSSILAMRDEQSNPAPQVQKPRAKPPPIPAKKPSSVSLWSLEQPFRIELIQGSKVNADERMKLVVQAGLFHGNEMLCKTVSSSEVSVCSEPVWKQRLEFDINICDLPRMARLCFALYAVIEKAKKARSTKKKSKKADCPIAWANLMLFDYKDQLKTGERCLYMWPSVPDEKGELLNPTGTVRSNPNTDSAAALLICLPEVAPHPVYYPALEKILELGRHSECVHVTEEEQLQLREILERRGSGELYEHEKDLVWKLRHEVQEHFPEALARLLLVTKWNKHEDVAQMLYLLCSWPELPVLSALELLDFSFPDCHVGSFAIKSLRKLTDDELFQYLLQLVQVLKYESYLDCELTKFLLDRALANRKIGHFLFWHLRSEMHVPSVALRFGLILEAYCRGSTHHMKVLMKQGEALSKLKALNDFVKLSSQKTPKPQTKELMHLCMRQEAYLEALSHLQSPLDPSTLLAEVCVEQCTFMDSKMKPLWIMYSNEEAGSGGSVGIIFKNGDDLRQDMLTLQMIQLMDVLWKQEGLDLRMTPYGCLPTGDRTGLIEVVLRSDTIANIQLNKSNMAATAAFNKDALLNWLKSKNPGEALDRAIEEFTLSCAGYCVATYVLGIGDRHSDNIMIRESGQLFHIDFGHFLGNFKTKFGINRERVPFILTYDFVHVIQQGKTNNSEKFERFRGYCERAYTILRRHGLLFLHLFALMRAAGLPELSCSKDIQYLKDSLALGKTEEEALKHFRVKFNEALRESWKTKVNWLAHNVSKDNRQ
PI3kδ, sequence (P27986 whole entry partner): as the sequence (P27986 whole entry partner) above
PI3kγ, sequence (P48736 whole entry): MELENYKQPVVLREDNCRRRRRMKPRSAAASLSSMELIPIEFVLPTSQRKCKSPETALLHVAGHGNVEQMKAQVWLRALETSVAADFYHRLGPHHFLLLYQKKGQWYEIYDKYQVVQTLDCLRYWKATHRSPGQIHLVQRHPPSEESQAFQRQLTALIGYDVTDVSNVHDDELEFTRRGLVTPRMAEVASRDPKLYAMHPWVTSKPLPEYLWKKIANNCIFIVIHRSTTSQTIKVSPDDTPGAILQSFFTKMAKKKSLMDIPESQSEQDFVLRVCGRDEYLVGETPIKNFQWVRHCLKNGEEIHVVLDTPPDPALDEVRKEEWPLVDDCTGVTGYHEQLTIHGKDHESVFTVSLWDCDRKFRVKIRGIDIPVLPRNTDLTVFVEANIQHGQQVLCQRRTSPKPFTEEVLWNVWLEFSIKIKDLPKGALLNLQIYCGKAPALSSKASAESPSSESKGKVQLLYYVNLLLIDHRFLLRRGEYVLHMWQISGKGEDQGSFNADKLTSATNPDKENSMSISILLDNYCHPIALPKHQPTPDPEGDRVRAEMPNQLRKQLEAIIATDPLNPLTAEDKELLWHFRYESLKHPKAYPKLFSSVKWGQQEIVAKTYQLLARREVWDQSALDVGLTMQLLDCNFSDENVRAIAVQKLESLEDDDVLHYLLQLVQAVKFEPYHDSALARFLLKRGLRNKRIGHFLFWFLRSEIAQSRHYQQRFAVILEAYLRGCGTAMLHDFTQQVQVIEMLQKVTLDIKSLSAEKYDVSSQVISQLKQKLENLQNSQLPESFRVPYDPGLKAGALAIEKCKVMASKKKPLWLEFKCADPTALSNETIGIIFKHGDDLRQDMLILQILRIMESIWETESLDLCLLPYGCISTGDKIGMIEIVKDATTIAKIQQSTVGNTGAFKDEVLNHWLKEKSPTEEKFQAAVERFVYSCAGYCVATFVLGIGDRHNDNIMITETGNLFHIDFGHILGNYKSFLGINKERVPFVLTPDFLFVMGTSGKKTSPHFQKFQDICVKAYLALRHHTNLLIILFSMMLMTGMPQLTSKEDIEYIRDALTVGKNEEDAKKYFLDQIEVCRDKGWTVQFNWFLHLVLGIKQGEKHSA

## CC(c1oc2cccc(F)c2c(=O)c1-c1ccc(F)cc1)n1nc(-c2ccc(OC(F)F)c(F)c2)c2c(N)ncnc21 (racemic) [Example 96, (S)/(R)-2-(1-(4-amino-3-(4-(difluoromethoxy)-3-fluorophenyl)-1H-pyrazolo[3,4-d]pyrimidin-1-yl)ethyl)-5-fluoro-3-(4-fluorophenyl)-4H-chromen-4-one]
[1]
  inhibition at 0.1 µM: 0 to 25%
[2]
  inhibition at 0.1 µM: 0 to 25%

## CC(C)Oc1ccc(-c2nn(C(C)c3oc4cccc(F)c4c(=O)c3-c3ccc(F)cc3)c3ncnc(N)c23)cc1F (single isomer, unassigned) [Example 95]
[1]
  inhibition at 0.1 µM: 0 to 25%
[2]
  inhibition at 0.1 µM: 25 to 50%

## CC(c1oc2cccc(F)c2c(=O)c1-c1ccccc1)n1nc(-c2ccc(OC(F)F)c(F)c2)c2c(N)ncnc21 (single isomer, unassigned) [Example 103]
[1]
  inhibition at 0.1 µM: 25 to 50%
[2]
  inhibition at 0.1 µM: 0 to 25%

## CNc1ncnc2c1c(-c1ccc(OC(C)C)c(F)c1)nn2C(C)c1oc2cccc(F)c2c(=O)c1-c1cccc(F)c1 (single isomer, unassigned; (+)) [Example 104, (+)-5-fluoro-2-(1-(3-(3-fluoro-4-isopropoxyphenyl)-4-(methylamino)-1H-pyrazolo[3,4-d]pyrimidin-1-yl)ethyl)-3-(3-fluorophenyl)-4H-chromen-4-one]
[1]
  inhibition at 0.1 µM: 25 to 50%
[2]
  % inhibition (PI3kδ) 100 nM: D (D=0 to 25%)

## Cc1cc(-c2nn(C(C)c3oc4cccc(F)c4c(=O)c3-c3cccc(F)c3)c3ncnc(N)c23)ccc1OC(C)C (single isomer, unassigned; (+)) [Example 114, (+) 2-(1-(4-amino-3-(4-isopropoxy-3-methylphenyl)-1H-pyrazolo[3,4-d]pyrimidin-1-yl)ethyl)-5-fluoro-3-(3-fluorophenyl)-4H-chromen-4-one]
[3]; 1 uM
  % inhibition (PI3kα) 1 uM: D (D=0 to 25%)
[1]; 0.1 µM
  % inhibition (PI3kγ) 100 nM: B (B=>50 to 75%)
[2]
  % inhibition (PI3kδ) 100 nM: B (B=>50 to 75%)

## CNc1ncnc2c1c(-c1ccc(OC(C)C)c(F)c1)nn2C(C)c1oc2cccc(F)c2c(=O)c1-c1cccc(F)c1 (single isomer, unassigned; (-)) [Example 105, (−)-5-fluoro-2-(1-(3-(3-fluoro-4-isopropoxyphenyl)-4-(methylamino)-1H-pyrazolo[3,4-d]pyrimidin-1-yl)ethyl)-3-(3-fluorophenyl)-4H-chromen-4-one]
[1]
  % inhibition (PI3kγ) 100 nM: C (C=>25 to 50%)
[2]
  % inhibition (PI3kδ) 100 nM: D (D=0 to 25%)

## COc1cccc2oc(Cn3cnc4c(N)ncnc43)c(-c3cccc(F)c3)c(=O)c12 [Example 1]
[3]; 1 uM
  inhibition at 1 µM: 25 to 50%
[4]
  inhibition at 1 µM: 25 to 50%
[2]
  inhibition at 0.3 µM: 50 to 75%

## COc1cccc2oc(Cn3nc(-c4ccc(OC(C)C)c(F)c4)c4c(N)ncnc43)c(-c3cccc(F)c3)c(=O)c12 [Example 2, 2-((4-Amino-3-(3-fluoro-4-isopropoxyphenyl)-1H-pyrazolo[3,4-d]pyrimidin-1-yl)methyl)-3-(3-fluorophenyl)-5-methoxy-4H-chromen-4-one]
[3]; 1 uM
  inhibition at 1 µM: 0 to 25%
[4]
  inhibition at 1 µM: 0 to 25%
[2]
  inhibition at 0.3 µM: 50 to 75%

## Nc1ncnc2c1c(-c1cc(O)cc(F)c1)nn2Cc1oc2cccc(F)c2c(=O)c1-c1cccc(F)c1 [Example 5, 2-((4-amino-3-(3-fluoro-5-hydroxyphenyl)-1H-pyrazolo[3,4-d]pyrimidin-1-yl)methyl)-5-fluoro-3-(3-fluorophenyl)-4H-chromen-4-one]
[3]; 1 uM
  inhibition at 1 µM: 25 to 50%
[3]; numeric values
  IC50: > 10000 nM
[4]
  IC50: 300 to 500 nM
  inhibition at 1 µM: 0 to 25%
[2]
  inhibition at 0.3 µM: 50 to 75%

## CC(Nc1ncnc2[nH]cnc12)c1oc2cccc(F)c2c(=O)c1-c1cccc(F)c1 (stereo not drawn) [Example 15, 2-(1-(9H-purin-6-ylamino)ethyl)-5-fluoro-3-(3-fluorophenyl)-4H-chromen-4-one]
[1]
  inhibition at 0.3 µM: 0 to 25%
[2]
  inhibition at 0.3 µM: 0 to 25%

## CC(c1oc2cccc(F)c2c(=O)c1-c1cccc(F)c1)n1nc(-c2ccc(OC3CCNCC3)c(F)c2)c2c(N)ncnc21 (stereo not drawn) [Example 21, 2-(1-(4-amino-3-(3-fluoro-4-(piperidin-4-yloxy)phenyl)-1H-pyrazolo[3,4-d]pyrimidin-1-yl)ethyl)-5-fluoro-3-(3-fluorophenyl)-4H-chromen-4-one]
[1]
  inhibition at 0.3 µM: 0 to 25%
[2]
  inhibition at 0.3 µM: 25 to 50%

## CC(c1oc2cccc(F)c2c(=O)c1-c1cccc(F)c1)n1nc(-c2ccc(N(C)C)c(F)c2)c2c(N)ncnc21 (stereo not drawn) [Example 24, 2-(1-(4-amino-3-(4-(dimethylamino)-3-fluorophenyl)-1H-pyrazolo[3,4-d]pyrimidin-1-yl)ethyl)-5-fluoro-3-(3-fluorophenyl)-4H-chromen-4-one]
[3]; 1 uM
  inhibition at 1 µM: 0 to 25%
[4]
  inhibition at 1 µM: 50 to 75%
[1]
  inhibition at 0.3 µM: 25 to 50%

## CC(C)c1nn(C(C)c2oc3cccc(F)c3c(=O)c2-c2cccc(F)c2)c2ncnc(N)c12 (stereo not drawn) [Example 35, 2-(1-(4-amino-3-isopropyl-1H-pyrazolo[3,4-d]pyrimidin-1-yl)ethyl)-5-fluoro-3-(3-fluorophenyl)-4H-chromen-4-one]
[1]
  inhibition at 0.3 µM: 25 to 50%
[2]
  inhibition at 0.3 µM: 0 to 25%

## CC(c1oc2cccc(F)c2c(=O)c1-c1ccccc1)n1nc(-c2ccc(N3CCOCC3)c(F)c2)c2c(N)ncnc21 (stereo not drawn) [Example 92, 2-(1-(4-amino-3-(3-fluoro-4-morpholinophenyl)-1H-pyrazolo[3,4-d]pyrimidin-1-yl)ethyl)-5-fluoro-3-phenyl-4H-chromen-4-one]
[1]
  inhibition at 0.1 µM: 0 to 25%
[2]
  inhibition at 0.1 µM: 0 to 25%

## CC(c1oc2cccc(F)c2c(=O)c1-c1ccc(F)cc1)n1nc(-c2ccc(N3CCOCC3)c(F)c2)c2c(N)ncnc21 (stereo not drawn) [Example 93, 2-(1-(4-amino-3-(3-fluoro-4-morpholinophenyl)-1H-pyrazolo[3,4-d]pyrimidin-1-yl)ethyl)-5-fluoro-3-(4-fluorophenyl)-4H-chromen-4-one]
[1]
  inhibition at 0.1 µM: 0 to 25%
[2]
  inhibition at 0.1 µM: 25 to 50%

## CNc1ncnc2c1c(-c1ccc(N3CCOCC3)c(F)c1)nn2C(C)c1oc2cccc(F)c2c(=O)c1-c1cccc(F)c1 (stereo not drawn) [Example 99, 5-fluoro-2-(1-(3-(3-fluoro-4-morpholinophenyl)-4-(methylamino)-1H-pyrazolo[3,4-d]pyrimidin-1-yl)ethyl)-3-(3-fluorophenyl)-4H-chromen-4-one]
[1]
  inhibition at 0.1 µM: 25 to 50%
[2]
  inhibition at 0.1 µM: 25 to 50%

## CC(c1oc2cccc(F)c2c(=O)c1-c1cccc(F)c1)n1cnc2c(N)nc(F)nc21 (stereo not drawn) [Example 106, 2-(1-(6-amino-2-fluoro-9H-purin-9-yl)ethyl)-5-fluoro-3-(3-fluorophenyl)-4H-chromen-4-one]
[1]
  inhibition at 0.1 µM: 25 to 50%
[2]
  inhibition at 0.1 µM: 0 to 25%

## CC(c1oc2cccc(F)c2c(=O)c1-c1ccc(F)cc1)n1cnc2c(N3CCN(C)CC3)ncnc21 (stereo not drawn) [Example 109, 5-fluoro-3-(4-fluorophenyl)-2-(1-(6-(4-methylpiperazin-1-yl)-9H-purin-9-yl)ethyl)-4H-chromen-4-one]
[1]
  inhibition at 0.1 µM: 0 to 25%
[2]
  inhibition at 0.1 µM: 25 to 50%

## CNc1ncnc2c1ncn2C(C)c1oc2cccc(F)c2c(=O)c1-c1cccc(F)c1 (stereo not drawn) [Example 111, 5-fluoro-3-(3-fluorophenyl)-2-(1-(6-(methylamino)-9H-purin-9-yl)ethyl)-4H-chromen-4-one]
[4]
  inhibition at 1 µM: 0 to 25%
[1]
  inhibition at 0.1 µM: 25 to 50%
[2]
  inhibition at 0.1 µM: 25 to 50%

## CC(C)Oc1ccc(-c2nn(C(C)c3oc4cccc(F)c4c(=O)c3-c3cccc(F)c3)c3ncnc(N)c23)cc1Cl (stereo not drawn) [Example 117, 2-(1-(4-amino-3-(3-chloro-4-isopropoxyphenyl)-1H-pyrazolo[3,4-d]pyrimidin-1-yl)ethyl)-5-fluoro-3-(3-fluorophenyl)-4H-chromen-4-one]
[3]; 1 uM
  inhibition at 1 µM: 50 to 75%
[1]
  inhibition at 0.1 µM: 25 to 50%
[2]
  inhibition at 0.1 µM: 25 to 50%

## CC(c1oc2cccc(F)c2c(=O)c1-c1cccc(F)c1)n1cnc2c(N3CCOCC3)ncnc21 (stereo not drawn) [Example 119, 5-fluoro-3-(3-fluorophenyl)-2-(1-(6-morpholino-9H-purin-9-yl)ethyl)-4H-chromen-4-one]
[1]
  inhibition at 0.1 µM: 25 to 50%
[2]
  inhibition at 0.1 µM: 0 to 25%

## CCC(c1oc2cccc(F)c2c(=O)c1-c1cccc(F)c1)n1nc(-c2ccc(OC(C)C)c(F)c2)c2c(N)ncnc21 (stereo not drawn) [Example 133, 2-(1-(4-amino-3-(3-fluoro-4-isopropoxyphenyl)-1H-pyrazolo[3,4-d]pyrimidin-1-yl)propyl)-5-fluoro-3-(3-fluorophenyl)-4H-chromen-4-one]
[4]
  inhibition at 1 µM: 50 to 75%
[1]
  inhibition at 0.1 µM: 50 to 75%
[2]
  inhibition at 0.1 µM: 25 to 50%
